Read-outs that look alike come from different tables or passages of the source.
Assays:
[1] = target: T1, Porcine Microsomal Alpha-Glucosidase I (Sus scrofa, UniProt K7N7E7); test: Inhibition constants against porcine microsomal alpha-glucosidase I; assay type: biochemical
T1 construct: Alpha-glucosidase I was isolated from porcine liver microsomes; from tissue; host or cells: porcine liver microsomes
T1 sequence (K7N7E7 1-839): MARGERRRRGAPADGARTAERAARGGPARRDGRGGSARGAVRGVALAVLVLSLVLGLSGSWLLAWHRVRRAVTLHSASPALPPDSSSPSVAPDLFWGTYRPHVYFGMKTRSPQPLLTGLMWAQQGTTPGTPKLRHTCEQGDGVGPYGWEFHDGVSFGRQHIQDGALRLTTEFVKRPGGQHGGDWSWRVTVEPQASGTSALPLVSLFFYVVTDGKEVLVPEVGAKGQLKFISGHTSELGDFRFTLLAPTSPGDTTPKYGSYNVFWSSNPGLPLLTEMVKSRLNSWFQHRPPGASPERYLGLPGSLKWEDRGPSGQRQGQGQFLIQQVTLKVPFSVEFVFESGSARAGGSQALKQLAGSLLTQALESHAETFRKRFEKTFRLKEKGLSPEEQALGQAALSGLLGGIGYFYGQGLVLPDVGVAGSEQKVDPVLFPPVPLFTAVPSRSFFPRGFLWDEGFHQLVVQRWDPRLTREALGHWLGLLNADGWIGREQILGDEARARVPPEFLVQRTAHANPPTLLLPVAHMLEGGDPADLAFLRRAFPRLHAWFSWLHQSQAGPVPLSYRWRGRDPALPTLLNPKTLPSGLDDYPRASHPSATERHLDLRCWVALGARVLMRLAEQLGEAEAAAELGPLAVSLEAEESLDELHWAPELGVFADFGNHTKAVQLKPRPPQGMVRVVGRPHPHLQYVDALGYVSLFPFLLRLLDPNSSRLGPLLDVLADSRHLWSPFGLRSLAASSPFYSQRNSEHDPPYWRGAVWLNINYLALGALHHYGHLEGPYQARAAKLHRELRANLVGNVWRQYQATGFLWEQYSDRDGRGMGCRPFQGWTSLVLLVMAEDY
Protocol: Porcine Microsomal Alpha-Glucosidase I. Alpha-glucosidase I was isolated from porcine liver microsomes by an affinity chromatographic method similar to that described by Hettkamp et.al., Eur J. Biochem. 142, 85-90 (1981).
Inhibition constants for the various DNJ derivatives and castanospermine were determined assuming competitive inhibition and were derived from the initial rates for the hydrolysis of [^14 C-Glc]Glc3 Man9 GlcNAc2 (at a concentration of 0.044 μM), at pH7.0 and 37° C. in the presence and absence of several fixed concentrations of each inhibitor.

[2] = target: T2, Porcine Intestinal Sucrase (Sus scrofa, UniProt P56729); test: Inhibition constants against porcine intestinal sucrase; assay type: biochemical
T2 construct: both chains cut from one SI precursor
Protocol: (§1) Porcine Intestinal Sucrase and Maltase. A sucrase-isomaltase complex was extracted from pig small intestine by treatment with urea and then solubilized by digestion with papain. The enzyme-complex was recovered by ethanol precipitation and then further purified by cellulose DE-52 anion exchange chromatography. The activity of sucrase was assayed by incubating an appropriate amount of enzyme at 37° C. in a final volume of 150 μ1 containing 25 mM sodium citrate buffer, pH 6.0, and 30 mM sucrose as substrate. After 30 min. the enzyme was inactivated by heating at 100° C. for 3 min, the reaction mixture centrifuged at 15000×g for 15 min and a 50 µl aliquot of the supernatant removed and the enzymereleased glucose determined by the glucose oxidase-peroxidase method described by Trinder, Ann. Clin. Biochem. 6, 24 (1969). Under the standard assay conditions, the release of glucose was linear up to 10% hydrolysis of the substrate. […] Maltase activity associated with the sucrase-isomaltase complex [Kolinska and Semenze, Biochim. Biophys. Acta 146, 181 (1967)] was assayed in a manner similar to sucrase except that the substrate was 30 mM maltose. Under the standard assay conditions release of glucose was linear up to 8% hydrolysis of the substrate. The specific activity of maltase was 15.2 units/mg protein.
Inhibition constants for the various DNJ derivatives and castanospermine were determined from Lineweaver-Burk plots of the enzyme-catalyzed reaction in the presence and absence of different fixed concentrations of each inhibitor. Incubations using sucrase were for 30 min at a concentration of 90 milliunits/ml and for maltase were for 12 min at a concentration of 80 milliunits/ml.

[3] = target: T3, Porcine Intestinal Maltase (Sus scrofa, UniProt P56729); test: Inhibition constants against porcine intestinal maltase; assay type: biochemical
T3 construct: both chains cut from one SI precursor
Protocol: as §1, with “Under the standard assay conditions release of glucose was linear up to 8% hydrolysis of the substrate. The specific activity of maltase was 15.2 units/mg protein.” left out
Inhibition constants for the various DNJ derivatives and castanospermine were determined from Lineweaver-Burk plots of the enzyme-catalyzed reaction in the presence and absence of different fixed concentrations of each inhibitor. […]

[4] = system: human immunodeficiency virus (HIV); conditions: at noncytotoxic concentrations; cited from earlier work
[5] = system: bovine intestinal alkaline phosphatase; test: Dephosphorylation by alkaline phosphatase (biolability of the phosphate group); assay type: in vitro ADME; conditions: 1 mM compound, 130 U/ml enzyme, 37° C., pH 9.5, 16 h, assayed by HPAEC
Protocol: N-Butyldeoxynojirimycin-6-phosphate (1 mM) was incubated with bovine intestinal alkaline phosphatase (Sigma Type VII, 130 U/ml) at 37° C. n 0.1 m Na2 Co3 /NaHCO3 buffer, pH 9.5.

[6] = porcine liver microsomes, substrate [14C-Glc]Glc3Man9GlcNAc2 0.044 μM, pH 7.0, 37° C., competitive inhibition assumed, read-out: Ki Microsomal α-Glucosidase I
[7] = pig small intestine, 30 mM sucrose, pH 6.0, 37° C., 30 min, Lineweaver-Burk plots, read-out: Ki Intestinal Sucrase

T2 sequence (P56729 with tags, fused parts or gaps): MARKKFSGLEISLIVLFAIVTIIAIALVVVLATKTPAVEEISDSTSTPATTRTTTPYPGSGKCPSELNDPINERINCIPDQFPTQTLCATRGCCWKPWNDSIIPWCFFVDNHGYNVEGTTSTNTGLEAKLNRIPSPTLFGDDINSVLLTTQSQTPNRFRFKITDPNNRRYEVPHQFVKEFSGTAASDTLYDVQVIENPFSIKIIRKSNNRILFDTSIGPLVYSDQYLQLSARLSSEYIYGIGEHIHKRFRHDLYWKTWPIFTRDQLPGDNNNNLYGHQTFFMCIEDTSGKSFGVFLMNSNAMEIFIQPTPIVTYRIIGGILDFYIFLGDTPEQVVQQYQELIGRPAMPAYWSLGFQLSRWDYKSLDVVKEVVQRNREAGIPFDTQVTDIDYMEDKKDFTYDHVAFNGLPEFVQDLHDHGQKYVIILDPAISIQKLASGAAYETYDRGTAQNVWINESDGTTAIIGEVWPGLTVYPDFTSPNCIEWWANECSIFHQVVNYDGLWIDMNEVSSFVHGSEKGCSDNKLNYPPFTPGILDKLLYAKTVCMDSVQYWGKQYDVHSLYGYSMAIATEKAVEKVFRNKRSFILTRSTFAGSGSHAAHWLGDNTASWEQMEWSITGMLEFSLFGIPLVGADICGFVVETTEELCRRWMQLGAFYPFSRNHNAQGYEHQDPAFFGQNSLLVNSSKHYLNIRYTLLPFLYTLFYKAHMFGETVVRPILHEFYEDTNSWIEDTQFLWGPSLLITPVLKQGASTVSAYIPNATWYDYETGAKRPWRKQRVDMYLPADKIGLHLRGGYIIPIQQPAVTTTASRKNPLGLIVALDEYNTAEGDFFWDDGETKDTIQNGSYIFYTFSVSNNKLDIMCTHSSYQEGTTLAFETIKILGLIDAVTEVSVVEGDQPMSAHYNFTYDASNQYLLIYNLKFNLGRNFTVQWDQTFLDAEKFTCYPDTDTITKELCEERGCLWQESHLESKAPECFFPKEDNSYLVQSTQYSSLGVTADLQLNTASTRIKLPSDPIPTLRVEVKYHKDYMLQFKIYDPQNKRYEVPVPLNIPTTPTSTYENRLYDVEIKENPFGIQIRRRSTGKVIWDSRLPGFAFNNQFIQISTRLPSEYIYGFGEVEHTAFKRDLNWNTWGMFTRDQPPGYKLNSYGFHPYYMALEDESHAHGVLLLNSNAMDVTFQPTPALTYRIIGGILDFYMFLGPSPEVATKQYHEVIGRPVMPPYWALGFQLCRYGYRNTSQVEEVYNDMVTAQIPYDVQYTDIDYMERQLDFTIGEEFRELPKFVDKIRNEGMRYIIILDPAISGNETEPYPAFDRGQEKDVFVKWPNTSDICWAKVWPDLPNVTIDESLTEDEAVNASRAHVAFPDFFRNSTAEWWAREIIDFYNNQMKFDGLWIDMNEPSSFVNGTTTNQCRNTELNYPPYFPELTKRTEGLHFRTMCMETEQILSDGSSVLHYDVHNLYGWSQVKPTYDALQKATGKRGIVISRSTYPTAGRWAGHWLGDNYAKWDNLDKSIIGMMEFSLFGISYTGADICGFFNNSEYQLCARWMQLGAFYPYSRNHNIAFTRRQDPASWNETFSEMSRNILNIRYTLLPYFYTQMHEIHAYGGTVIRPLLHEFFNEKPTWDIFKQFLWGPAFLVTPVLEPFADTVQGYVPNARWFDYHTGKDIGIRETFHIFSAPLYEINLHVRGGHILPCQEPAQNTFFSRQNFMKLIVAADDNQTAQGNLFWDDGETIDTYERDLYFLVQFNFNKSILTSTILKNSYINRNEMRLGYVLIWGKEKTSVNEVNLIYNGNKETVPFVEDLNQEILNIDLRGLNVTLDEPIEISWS
T3 sequence (P56729 with tags, fused parts or gaps): as above

| SMILES | Ki [1, 6] [µM] | Ki [2, 7] [µM] | Inhibition of α-glucosidase I (in words) [1] | Dephosphorylation by alkaline phosphatase ([5]; listed as N-Butyldeoxynojirimycin-6-phosphate) | Dephosphorylation by alkaline phosphatase ([5]; listed as N-butyl-deoxynojirimycin-6-phosphate) | Ki [1] [µM] | Ki [2] [µM] | Inhibition of maltase (in words) [3] | Inhibition of sucrase (in words) [2] | Reduction of virus titer [4] |
| --- | --- | --- | --- | --- | --- | --- | --- | --- | --- | --- |
| O[C@H]1[C@H](O)[C@@H](O)CN2CC[C@H](O)[C@H]12 [Castanospermine, castanospermine] | 0.04 | 0.064 |  |  |  |  |  |  |  |  |
| OC[C@H]1NC[C@H](O)[C@@H](O)[C@@H]1O [DNJ, deoxynojirimycin] |  |  |  |  |  | 0.83 | 0.05 |  |  |  |
| CCCCN1C[C@H](O)[C@@H](O)[C@H](O)[C@H]1CO [N-BuDNJ, N-butyldeoxynojirimycin] |  |  |  |  |  | 0.22 | 0.18 | potent inhibitor | potent inhibitor | greater than five logarithms |

Continued, in another order:

| Ki [1, 6] [µM] | Ki [2, 7] [µM] | Inhibition of α-glucosidase I (in words) [1] | Dephosphorylation by alkaline phosphatase ([5]; listed as N-Butyldeoxynojirimycin-6-phosphate) | Dephosphorylation by alkaline phosphatase ([5]; listed as N-butyl-deoxynojirimycin-6-phosphate) | SMILES | Ki [1] [µM] | Ki [2] [µM] | Inhibition of maltase (in words) [3] | Inhibition of sucrase (in words) [2] | Reduction of virus titer [4] |
| --- | --- | --- | --- | --- | --- | --- | --- | --- | --- | --- |
| 6600 | 520 |  |  |  | O=P(O)(O)OC[C@H]1NC[C@H](O)[C@@H](O)[C@@H]1O [DNJ-6-P, deoxynojirimycin-6-phosphate] |  |  |  |  |  |
| 4000 | 1500 | very weak inhibitor | completely dephosphorylated | completely dephosphorylted | CCCCN1C[C@H](O)[C@@H](O)[C@H](O)[C@H]1COP(=O)(O)O [N-BuDNJ-6-P, N-butyldeoxynojirimycin-6-phosphate] |  |  | very weak inhibitor | very weak inhibitor |  |
